Test results: patent US20260140098A1, “METHOD FOR TREATING PLASMA SAMPLE CONTAINING (7aS,2'S)-2-OXO-CLOPIDOGREL AND METHOD FOR DETERMINING THE SAME” (CHENGDU SHIBEIKANG BIOMEDICAL TECHNOLOGY CO., LTD., priority 2021, published 2026)
Several values for one entry are separate records, joined by “and”; a condition that tells them apart may be missing. Equal values may be shown once.

Assay: Stability of (7aS,2′S)-2-oxo-clopidogrel in plasma containing the reducing agent (Example 8)
Type: in vitro ADME, human
Conditions: plasma with reducing agent; for Measured concentration: single replicates
Experimental: S1. Whole blood treatment: taking 3 ml of human whole blood anticoagulated with EDTA-K2 after oral administration of (7aS,2′S)-2-oxo-clopidogrel, cooling to 4° C. on ice, then adding thereto 60 μl of tris(2-carboxyethyl) phosphine at 100 mg/ml; shaking well and then centrifuging (2-8° C., 3000 rpm for 10 min), and collecting plasma for later use.
S2. Plasma sample pre-treatment: taking 100 μl of the plasma, adding 5 μl of an internal standard working solution and 300 μl of acetonitrile respectively; after vortex mixing, centrifuging at 2-8° C. and 10,000 r/min for 10 min, and collecting the supernatant for later use.
S3. LC-MS/MS analysis: injecting 10 μl of the supernatant prepared from step S2 for determination, where the liquid chromatography conditions are: • the chromatographic column is Kinetex® 1.7 μm C18 100 A 100×2.1 mm; the column temperature is 40° C.; the mobile phase is acetonitrile-0.2% aqueous formic acid solution with a flow rate of 0.2 ml/min; and a gradient elution is carried out as specified in the table below:
ESI ion source, positive ion detection in multiple reaction monitoring mode (MRM); the quantitatively analyzed ions (7aS,2′S)-2-oxo-clopidogrel: m/z 338.100→155.000, IS: m/z 341.100→158.000, a capillary voltage of 4.0 KV, a cone voltage of 25 V, a desolvation gas temperature of 400° C. and a source temperature of 150° C. The optimal collision energy is 20 eV.
Blank plasma was taken and operated according to S1 of Example 1 to obtain a blank plasma containing the reducing agent. Subsequently, a standard series solution of (7aS,2′S)-2-oxo-clopidogrel was added to prepare quality control samples containing (7aS,2′S)-2-oxo-clopidogrel at concentrations of 0.1 and 12 ng/ml. The plasma samples were examined for stability after ice box short-term placement, stability after room temperature short-term placement, stability after freeze-thaw cycle and stability after long-term cryopreservation.
The plasma samples at different placing time points were taken to examine the stability by pre-treating the plasma samples according to the method of S2 of Example 1, followed by LC/MS/MS determination according to the method of S3.

[1] = placing at room temperature for 1 h, theoretical 0.1 ng/mL
[2] = placing at room temperature for 1 h, theoretical 12.0 ng/mL
[3] = placing below −60° C. for 36 days, theoretical 0.1 ng/mL
[4] = placing in ice box for 4 h, theoretical 12.0 ng/mL
[5] = three cycles of freeze-thaw, theoretical 0.1 ng/mL
[6] = three cycles of freeze-thaw, theoretical 12.0 ng/mL

recovery at 1 h, 0.1 ng/mL (human, plasma containing the reducing agent (TCEP), placing at room temperature for 1 h, theoretical 0.1 ng/mL, read-out: Recovery rate): 102%
recovery at 1 h, 12 ng/mL (human, plasma containing the reducing agent (TCEP), placing at room temperature for 1 h, theoretical 12.0 ng/mL, read-out: Recovery rate): 99.4%
recovery at 36 days, 0.1 ng/mL (human, plasma containing the reducing agent (TCEP), placing below −60° C. for 36 days, theoretical 0.1 ng/mL, read-out: Recovery rate): 96.4%
recovery at 36 days, 12 ng/mL (human, plasma containing the reducing agent (TCEP), placing below −60° C. for 36 days, theoretical 12.0 ng/mL, read-out: Recovery rate): 97.7%
recovery at 4 h, 0.1 ng/mL (human, plasma containing the reducing agent (TCEP), placing in ice box for 4 h, theoretical 0.1 ng/mL, read-out: Recovery rate): 100%
recovery at 4 h, 12 ng/mL (human, plasma containing the reducing agent (TCEP), placing in ice box for 4 h, theoretical 12.0 ng/mL, read-out: Recovery rate): 98.5%
recovery at 0.1 ng/mL (human, plasma containing the reducing agent (TCEP), three cycles of freeze-thaw, theoretical 0.1 ng/mL, read-out: Recovery rate): 100%
recovery at 12 ng/mL (human, plasma containing the reducing agent (TCEP), three cycles of freeze-thaw, theoretical 12.0 ng/mL, read-out: Recovery rate): 99.3%
Average measured concentration [1]: 0.1021 ng/mL
Average measured concentration [2]: 11.9269 ng/mL
Average measured concentration [3]: 0.0964 ng/mL
Measured concentration [3]: 0.0980 ng/mL and 0.0940 ng/mL
Measured concentration (placing in ice box for 4 h, theoretical 0.1 ng/mL): 0.1013 ng/mL (2×) and 0.0960 ng/mL
Average measured concentration [4]: 11.8184 ng/mL
Average measured concentration [5]: 0.1003 ng/mL
Average measured concentration [6]: 11.9191 ng/mL
SMILES: COC(=O)[C@H](c1ccccc1Cl)N1CC[C@@H]2SC(=O)C=C2C1 [(7aS,2′S)-2-oxo-clopidogrel, methyl(S)-2-(2-chlorophenyl)-2-((S)-2-oxo-2,6,7,7a-tetrahydrothieno[3,2-c]pyridin-5 (4H)-yl)acetate]
Measured concentration [1]: 0.1013 ng/mL and 0.1027 ng/mL and 0.1020 ng/mL and 0.1040 ng/mL and 0.1007 ng/mL
Measured concentration [2]: 11.8349 ng/mL and 11.7245 ng/mL and 11.8592 ng/mL and 12.1616 ng/mL and 12.0541 ng/mL
Measured concentration [4]: 12.0320 ng/mL and 11.7632 ng/mL and 11.6883 ng/mL and 11.8822 ng/mL and 11.7261 ng/mL
Measured concentration [5]: 0.1007 ng/mL (2×) and 0.1013 ng/mL (2×) and 0.0973 ng/mL
Measured concentration [6]: 11.9123 ng/mL and 11.8416 ng/mL and 11.9078 ng/mL and 11.8995 ng/mL and 12.0342 ng/mL
